Reference: patent publication EP0564397A1, “Antiatherosclerotic substituted phenylquinazoline derivatives” (SANDOZ LTD., priority 1992, dated 1993)

Legend:
Conditions in all cases: duration of treatment 8 days
HDL-cholesterol = assay: Test A: In vivo HDL-cholesterol test
Description: (§1) a) Test A: In vivo HDL-cholesterol test: The test is effected according to the method described in the literature, e.g. in EP 528 146 Other conventional methods may be used to assay the blood serum samples for HDL-cholesterol and total triglycerides content.

total triglycerides = assay: Test A: In vivo HDL-cholesterol test, blood serum samples assayed for total triglycerides content
Description: as §1

Apo A-I = assay: Test B: Apo A-I test; format: in vivo
Description: b) Test B: Apo A-I test: The test is effected as described in the literature, e.g. in EP 528 146.

| SMILES | HDL-cholesterol level increase (%) (HDL-cholesterol; average dose 83 mg/kg/day) | Total triglyceride level decrease (%) (total triglycerides; average dose 83 mg/kg/day) | Apo-I level increase (%) (Apo A-I; average dose 83 mg/kg/day) | HDL-cholesterol level increase (%) (HDL-cholesterol; average dose 53 mg/kg/day) | Total triglyceride level decrease (%) (total triglycerides; average dose 53 mg/kg/day) | Apo-I level increase (%) (Apo A-I; average dose 53 mg/kg/day) |
| --- | --- | --- | --- | --- | --- | --- |
| CC1=CSC2=Nc3ccccc3[C@@H](c3ccccc3)N12 [Example 1, R-isomer (free base), (R)-3-Methyl-5-phenyl-5H-thiazolo[2,3-b]quinazoline] | 402 | 15 | 62 |  |  |  |
| Cc1ccc(C)c(OCCCC(C)(C)C(=O)O)c1 [Gemfibrozil] |  |  |  | 211 | 15 | 88 |
